Data published in patent US8173384B2, “Methods for analyzing or processing a heparin sample” (Massachusetts Institute of Technology, priority 2000, dated 2012).
Like-named read-outs stand apart in the source and are kept apart here.

Legend:
Thrombin (FIIa) = target: T1, Thrombin (FIIa) (Homo sapiens, UniProt P00734); assay: Anti-IIa assay (thrombin generation inhibition); type: biochemical
T1 construct: purchased Ortho Diagnostic Systems, Inc. (Raritan, N.J.) Fibrindex
Experimental: (§1) Biological Measurements of Decasaccharide Activity. In vitro anticoagulant activity was determined as described previously (Hoppensteadt, D. A., Jeske, W. P., Walenga, J. M., Fu, K., Yang, L. H., Ing, T. S., Herbert, J. M. & Fareed, J. (1999) Thromb Res 96, 115-24 and Dietrich, C. P., Paiva, J. F., Castro, R. A., Chavante, S. F., Jeske, W., Fareed, J., Gorin, P. A., Mendes, A. & Nader, H. B. (1999) Biochim Biophys Acta 1428, 273-83), according to the United States Pharmacopoeia. Thrombin (FIIa) and factor Xa (FXa) generation inhibition assays were completed essentially as described. Briefly, either AT-10 decasaccharide, Enoxaparin LMWH or the synthetic AT-III binding pentasaccharide (Penta 1) used in this study was dissolved in sterile saline at the designated concentrations. To this sample was added an equal volume of fibrinogen deficient plasma diluted 1:8 in 100 mM Tris-HCl (pH 8.5). In a separate sample, the same concentration of heparin oligosaccharide and actin was added in a 1:1 ratio to either Spectrozyme TH or FXa. In this manner, the intrinsic IIa and Xa generation was measured. In addition, to account for inhibition of thrombin and extrinsic generation of FXa, thromboplastin C was diluted 1:6 with either Spectrozyme TH or FXa. For all samples, the optical density was measured at 405 nm and results are expressed as a % inhibition compared to a unsupplemented saline control. […]

human AT-III [1] = target: T2, human AT-III (Homo sapiens, UniProt P01008); assay: Equilibrium fluorescence titration of AT-III with saccharide; type: binding
Experimental: Equilibrium Fluorescence Titration Experiments. Titrations of human AT-III with either AT-10 decasaccharide or heparin were completed at 25° C. using a Fluorolog 2 machine (Spex Instruments) (Meagher, J. L., Beechem, J. M., Olson, S. T. & Gettins, P. G. (1998) J Biol Chem 273, 23283-9 and Desai, U. R., Petitou, M., Bjork, I. & Olson, S. T. (1998) J Biol Chem 273, 7478-87). […] With the pH 7.4 buffer, sodium chloride was added to a final concentration of 100 mM.
Fluorescence emission spectra were collected from 300-400 nm with a 280 nm excitation wavelength and a 5 s integration time. Briefly, the titration experiments were conducted as follows—aliquots of either decasaccharide or heparin was added to a 1 μm solution of AT-III, the solution was allowed to come to equilibrium for one minute, and an emission spectrum collected. Addition of sequential saccharide aliquots and fluorescence signal was adjusted to account for protein dilution.

factor Xa (FXa) = assay: Anti-Xa assay (factor Xa generation inhibition; factor Xa from serum or purified); type: biochemical
Experimental: as §1

heparinase I = target: T3, heparinase I (Pedobacter heparinus, UniProt Q05819); assay: Exhaustive heparinase I digestion, products by MALDI-MS; type: biochemical, Flavobacterium heparinum
T3 construct: made in house
T3 sequence (Q05819 22-384): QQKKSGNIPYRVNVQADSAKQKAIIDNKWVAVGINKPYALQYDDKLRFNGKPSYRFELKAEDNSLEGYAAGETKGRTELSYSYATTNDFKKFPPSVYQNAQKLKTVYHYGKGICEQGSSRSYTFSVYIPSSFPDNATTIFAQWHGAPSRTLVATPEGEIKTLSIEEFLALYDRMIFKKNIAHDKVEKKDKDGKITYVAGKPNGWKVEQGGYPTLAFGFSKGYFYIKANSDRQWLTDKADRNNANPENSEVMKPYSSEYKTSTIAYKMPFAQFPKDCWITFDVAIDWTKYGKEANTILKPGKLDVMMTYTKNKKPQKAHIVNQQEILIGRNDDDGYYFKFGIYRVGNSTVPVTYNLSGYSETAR
Experimental: (§2) Digests. Heparinase I digests were completed as described (Venkataraman, G., Shriver, Z., Raman, R. & Sasisekharan, R. (1999) Science 286, 537-42 and Rhomberg, A. J., Ernst, S., Sasisekharan, R. & Biemann, K. (1998) Proc Natl Acad Sci USA 95, 4176-81). Heparinase II or III reactions were completed in essentially the same way at room temperature in 10 μM ovalbumin, 1 μM dextran sulfate, and 10 mM ethylenediamine, pH 7.0. Short digestions were completed with 50 nM enzyme for 10 minutes while exhaustive digests were completed with 200 nM enzyme overnight. Mass spectra were collected using parameters as outlined above (see also Shriver, Z., Raman, R., Venkataraman, G., Drummond, K., Turnbull, J., Toida, T., Linhardt, R., Biemann, K. & Sasisekharan, R. (2000) Proc Natl Acad Sci USA, 2000 Sep. 12; 97(19):10359-64) and calibrated externally by using signals for protonated (RG)19R and its complex with a nitrous acid-derived hexasaccharide of the sequence I2SHNS,6S I2SHNS,6S I2SMan6S
(§3) Enzymatic Action of the Heparinases Towards the AT-III Binding Site: Previously, we investigated the substrate specificity of heparinases I and II towards AT-10 (Rhomberg, A. J., Shriver, Z., Biemann, K. & Sasisekharan, R. (1998) Proc Natl Acad Sci USA 95, 12232-7 and Ernst, S., Rhomberg, A. J., Biemann, K. & Sasisekharan, R. (1998) Proc Natl Acad Sci USA 95, 4182-7). These studies, however, were carried out assuming a published structure (Toida, T., Hileman, R. E., Smith, A. E., Vlahova, P. I. & Linhardt, R. J. (1996) J Biol Chem 271, 32040-7). In light of the newly determined structure of AT-10 described herein (see also Shriver, Z., Raman, R., Venkataraman, G., Drummond, K., Turnbull, J., Toida, T., Linhardt, R., Biemann, K. & Sasisekharan, R. (2000) Proc Natl Acad Sci USA, 2000 Sep. 12; 97(19):10359-64), we reexamined the enzymatic action of heparinases I, II, and III towards oligosaccharides containing a 3-O sulfate that is critical for high affinity AT-III binding. For these studies, we used three oligosaccharides, two pentasaccharides (Penta 1 and Penta 2, FIG. 5) and a hexasaccharide (Hexa 1, FIG. 5). […]
(§4) Compositional Analysis: UFH was subjected to exhaustive depolymerization with an enzyme cocktail made up of Heparinase I, Heparinase II, and Heparinase III. […] The samples were analyzed by CE in reverse polarity with a running buffer of 50 mM tris/phosphate, 10 μM dextran sulfate, pH 2.5. […] Each sample was digested in duplicate and the experiment was repeated twice for each sample, resulting in four readings per sample. All of the 8 resulting peaks were collected, and the purity of the collected samples was checked by re-injecting into CE, and their mass was measured by offline MALDI Mass Spectrometry. […]

heparinase II = target: T4, heparinase II (Pedobacter heparinus, UniProt C6XZB6); assay: Exhaustive heparinase II digestion, products by MALDI-MS; type: biochemical, Flavobacterium heparinum
T4 construct: made in house
T4 sequence (C6XZB6 26-772): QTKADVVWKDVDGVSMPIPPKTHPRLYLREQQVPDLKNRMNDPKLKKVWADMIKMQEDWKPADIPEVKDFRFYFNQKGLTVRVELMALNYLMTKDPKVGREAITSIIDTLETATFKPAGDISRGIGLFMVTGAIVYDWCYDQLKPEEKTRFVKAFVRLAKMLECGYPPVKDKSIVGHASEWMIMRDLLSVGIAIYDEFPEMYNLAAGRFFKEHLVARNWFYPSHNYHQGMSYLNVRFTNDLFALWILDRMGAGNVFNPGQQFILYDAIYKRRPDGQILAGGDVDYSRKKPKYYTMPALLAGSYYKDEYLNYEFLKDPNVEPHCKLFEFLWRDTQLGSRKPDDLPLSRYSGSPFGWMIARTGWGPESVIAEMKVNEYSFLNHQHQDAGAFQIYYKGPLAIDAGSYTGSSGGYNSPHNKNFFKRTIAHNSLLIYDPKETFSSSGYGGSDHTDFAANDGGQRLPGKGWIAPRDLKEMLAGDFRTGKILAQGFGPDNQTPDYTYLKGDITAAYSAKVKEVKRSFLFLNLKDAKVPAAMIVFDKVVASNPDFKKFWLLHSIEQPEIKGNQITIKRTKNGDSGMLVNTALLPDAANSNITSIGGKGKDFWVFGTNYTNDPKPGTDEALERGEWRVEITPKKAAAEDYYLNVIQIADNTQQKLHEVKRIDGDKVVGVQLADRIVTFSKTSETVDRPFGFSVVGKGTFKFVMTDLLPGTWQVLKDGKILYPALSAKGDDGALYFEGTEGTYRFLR
Experimental: as §2, §3, §4

heparinase III = target: T5, heparinase III (Pedobacter heparinus, UniProt Q59289); assay: Exhaustive heparinase III digestion, products by MALDI-MS; type: biochemical, Flavobacterium heparinum
T5 construct: made in house
T5 sequence (Q59289 25-659): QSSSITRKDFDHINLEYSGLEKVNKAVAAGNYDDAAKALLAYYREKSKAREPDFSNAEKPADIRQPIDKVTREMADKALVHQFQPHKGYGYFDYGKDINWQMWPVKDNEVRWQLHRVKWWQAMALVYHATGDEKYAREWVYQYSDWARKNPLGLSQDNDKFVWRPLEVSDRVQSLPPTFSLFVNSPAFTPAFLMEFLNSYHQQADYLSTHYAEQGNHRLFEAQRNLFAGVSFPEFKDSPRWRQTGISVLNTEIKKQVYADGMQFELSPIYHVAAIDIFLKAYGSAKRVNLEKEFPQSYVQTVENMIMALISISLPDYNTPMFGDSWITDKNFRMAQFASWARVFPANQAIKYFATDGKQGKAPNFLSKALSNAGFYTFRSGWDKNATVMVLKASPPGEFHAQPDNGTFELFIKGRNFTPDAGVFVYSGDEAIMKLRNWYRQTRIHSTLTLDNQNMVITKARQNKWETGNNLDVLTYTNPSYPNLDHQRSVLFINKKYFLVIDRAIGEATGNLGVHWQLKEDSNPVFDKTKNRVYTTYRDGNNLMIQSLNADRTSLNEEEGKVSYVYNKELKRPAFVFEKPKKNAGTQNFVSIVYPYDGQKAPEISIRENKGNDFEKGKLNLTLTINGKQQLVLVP
Experimental: as §2, §3, §4

whole blood = assay: HepTest
Experimental: Whole blood data were also used to determine the anticoagulant activity of AT-10. The assays, activated partial thromboplastin time (APTT) and prothrombin time (PT) was conducted in a manner similar to what has been previously reported (Dietrich, C. P., Paiva, J. F., Castro, R. A., Chavante, S. F., Jeske, W., Fareed, J., Gorin, P. A., Mendes, A. & Nader, H. B. (1999) Biochim Biophys Acta 1428, 273-83). APTT reagent was obtained from Organon Teknika (Durham, N.C.) and HepTest Reagent was obtained from Haemachem (St. Louis, Mo.).

human AT-III [2] = target: T2, human AT-III; settings: Desai et al. 1998; cited from earlier work

SMILES	anti-IIa activity (in words) (Thrombin (FIIa))	Kd (human AT-III [1]; pH 6.0 I=0.025, read-out: KD for AT-III) [nM]	Kd (human AT-III [1]; pH 6.2, read-out: apparent KD for AT-III) [nM]	affinity for AT-III (in words) (human AT-III [1]; pH 7.4, I=0.15)	IC50 (factor Xa (FXa)) [nM]	cleavage by heparinase I (heparinase I)	cleavage by heparinase II (heparinase II)	cleavage by heparinase III (heparinase III)	HepTest activity (in words) (whole blood)	affinity for AT-III, previous studies (in words) (human AT-III [2])
CC(=O)NC1C(OC2C(C(=O)O)OC(OC3C(COS(=O)(=O)O)OC(O)C(NS(=O)(=O)O)C3OS(=O)(=O)O)C(O)C2O)OC(COS(=O)(=O)O)C(OC2OC(C(=O)O)C(OC3OC(COS(=O)(=O)O)C(OC4OC(C(=O)O)C(OC5OC(COS(=O)(=O)O)C(OC6OC(C(=O)O)C(OC7OC(COS(=O)(=O)O)C(OC8OC(C(=O)O)=CC(O)C8OS(=O)(=O)O)C(O)C7NS(=O)(=O)O)C(O)C6OS(=O)(=O)O)C(O)C5NS(=O)(=O)O)C(O)C4OS(=O)(=O)O)C(O)C3NS(=O)(=O)O)C(O)C2O)C1O [AT-10, ΔU2SHNS,6SI2SHNS,6SI2SHNS,6SIHNAc,6SGHNS,3S,6S]	neither the decasaccharide nor the pentasaccharide have significant anti-IIa activity	800	800	very little affinity	280					
CC(=O)NC1C(OC2C(C(=O)O)OC(OC3C(COS(=O)(=O)O)OC(O)C(NS(=O)(=O)O)C3OS(=O)(=O)O)C(O)C2O)OC(COS(=O)(=O)O)C(OC2OC(C(=O)O)C(OC3OC(COS(=O)(=O)O)C(OC4OC(C(=O)O)=CC(O)C4OS(=O)(=O)O)C(O)C3NS(=O)(=O)O)C(O)C2O)C1O [Hexa 1, ΔU2SHNS,6SIHNAc,6S, GHNS,3S,6S]						not cleaved	susceptible	susceptible		
CO[C@H]1O[C@H](COS(=O)(=O)O)[C@@H](O[C@@H]2O[C@@H](C(=O)O)[C@@H](O[C@H]3O[C@H](COS(=O)(=O)O)[C@@H](O[C@@H]4O[C@H](C(=O)O)[C@@H](O[C@H]5O[C@H](COS(=O)(=O)O)[C@@H](O)[C@H](O)[C@H]5NS(=O)(=O)O)[C@H](O)[C@H]4O)[C@H](OS(=O)(=O)O)[C@H]3NS(=O)(=O)O)[C@H](O)[C@H]2OS(=O)(=O)O)[C@H](O)[C@H]1NS(=O)(=O)O [Penta 1, HNS,6SGHNS,3S,6SI2SHNS,6S,OMe]	neither the decasaccharide nor the pentasaccharide have significant anti-IIa activity				39	cleave	cleave	not cleavable	significantly higher activity than the AT-10 decasaccharide	affinity similar to that of full length heparin
CO[C@H]1O[C@H](COS(=O)(=O)O)[C@@H](O[C@@H]2O[C@@H](C(=O)O)[C@@H](O[C@H]3O[C@H](COS(=O)(=O)O)[C@@H](O[C@@H]4O[C@H](C(=O)O)[C@@H](O[C@H]5O[C@H](COS(=O)(=O)O)[C@@H](O)[C@H](O)[C@H]5NS(=O)(=O)O)[C@H](O)[C@H]4O)[C@H](O)[C@H]3NS(=O)(=O)O)[C@H](O)[C@H]2OS(=O)(=O)O)[C@H](O)[C@H]1NS(=O)(=O)O [Penta 2, HNS,6SGHNS,6SI2SHNS,6S,OMe]						efficiently cleave	efficiently cleave	efficiently cleave		
CC(=O)N[C@H]1[C@@H](O[C@H]2[C@H](O)[C@@H](O)[C@H](O[C@H]3[C@H](OS(=O)(=O)O)[C@@H](NS(=O)(=O)O)C(O)O[C@@H]3COS(=O)(=O)O)O[C@@H]2C(=O)O)O[C@H](COS(=O)(=O)O)[C@@H](O[C@@H]2OC(C(=O)O)=C[C@H](O)[C@H]2O)[C@@H]1O (stereo partly drawn) [ΔUHNAC,6SGHNS,3S,6S]						resistant to further degradation	resistant to further degradation	resistant to further degradation		
